According to article PMC5960316 (Proceedings of the National Academy of Sciences of the …, 2018):
One block for each molecule: values may come before it.

Tests used:
[1] = biological target: T1, endogenous NrdEF (BsNrdEF) (Bacillus subtilis, UniProt P50620); experiment: HClO4 release and high-resolution LC/ESI-MS of copurified nucleotide; assay type: binding; conditions: stoichiometry, not affinity; native copurified ligand; protein ~80% pure
T1 sequence (P50620 1-700): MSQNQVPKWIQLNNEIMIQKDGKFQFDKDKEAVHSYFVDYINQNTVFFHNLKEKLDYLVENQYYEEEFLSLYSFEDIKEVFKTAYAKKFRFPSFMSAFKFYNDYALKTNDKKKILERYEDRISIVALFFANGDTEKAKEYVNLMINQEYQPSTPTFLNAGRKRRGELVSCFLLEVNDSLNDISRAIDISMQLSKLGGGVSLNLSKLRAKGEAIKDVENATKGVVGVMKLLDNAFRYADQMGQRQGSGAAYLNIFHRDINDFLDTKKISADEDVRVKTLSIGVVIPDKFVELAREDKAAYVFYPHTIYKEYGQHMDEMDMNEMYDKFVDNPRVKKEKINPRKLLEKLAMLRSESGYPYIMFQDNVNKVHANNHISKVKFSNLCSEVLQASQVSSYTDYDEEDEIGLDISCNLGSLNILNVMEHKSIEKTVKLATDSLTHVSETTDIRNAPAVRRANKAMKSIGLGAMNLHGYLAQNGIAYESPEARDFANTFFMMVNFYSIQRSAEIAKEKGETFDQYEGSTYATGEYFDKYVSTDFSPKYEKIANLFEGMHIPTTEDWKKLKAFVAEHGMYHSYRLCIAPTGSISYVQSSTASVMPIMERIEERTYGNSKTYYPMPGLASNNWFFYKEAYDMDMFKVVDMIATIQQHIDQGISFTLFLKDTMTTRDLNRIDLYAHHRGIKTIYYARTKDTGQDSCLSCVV
T1 sequence (P50621 1-329 partner): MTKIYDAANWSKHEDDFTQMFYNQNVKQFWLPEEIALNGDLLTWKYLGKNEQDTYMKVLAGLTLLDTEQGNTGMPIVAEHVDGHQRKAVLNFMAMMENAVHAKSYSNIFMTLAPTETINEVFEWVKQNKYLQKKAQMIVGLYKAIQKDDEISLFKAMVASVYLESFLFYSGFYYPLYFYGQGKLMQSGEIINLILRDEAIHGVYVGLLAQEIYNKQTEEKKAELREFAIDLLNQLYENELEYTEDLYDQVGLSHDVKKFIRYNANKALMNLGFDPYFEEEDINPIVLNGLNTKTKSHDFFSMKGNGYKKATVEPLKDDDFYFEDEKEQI

[2] = biological target: T2, B. subtilis class Ib RNR (NrdE with Mn(III)2-Y• NrdF) (Bacillus subtilis, UniProt P50620); experiment: spectrophotometric RNR activity assay, dATP titration; assay type: biochemical; conditions: read-out: % activity remaining at 25 μM
T2 sequence (P50620 1-700): T1 sequence (P50620 1-700)
T2 sequence (P50621 1-329 partner): T1 sequence (P50621 1-329 partner)

[3] = biological target: T3, Bacillus subtilis NrdE isolated from B. subtilis as the NrdE⋅NrdF (NrdEF) complex (Bacillus subtilis, UniProt P50620 1-700); experiment: co-purification from B. subtilis
T3 sequence (looked up): T1 sequence (P50620 1-700)

dAMP/α [1]: 0.3 per α
Molecule: Nc1ncnc2c1ncn2[C@H]1C[C@H](O)[C@@H](COP(=O)(O)O)O1 [dAMP]

remaining activity at 25 µM [2]: ~15%
Molecule: Nc1ncnc2c1ncn2[C@H]1C[C@H](O)[C@@H](COP(=O)(O)OP(=O)(O)OP(=O)(O)O)O1 [dATP]

stoichiometry N [3]: ~1
B1: Bacillus subtilis NrdF (Mn-loaded) isolated from B. subtilis as the NrdE⋅NrdF (NrdEF) complex (enzyme, UniProt P50621 1-329, looked up)
chain: T1 sequence (P50621 1-329 partner)
